Laboratory results from patent US11597724B2, “Herbicidally active 3-phenylisoxazoline-5-carboxamides of tetrahydro and dihydrofuran carboxylic acids and esters” (Bayer Aktiengesellschaft, priority 2017, dated 2023).

Key:
Assay type in all cases: in vivo
Avena fatua [1] = assay: Post-emergence herbicidal activity against AVEFA; conditions: Avena fatua, 504 h, dosage 320 g/ha, rated about 3 weeks after treatment
Method in brief: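 Greenhouse pots of sandy loam; plants sprayed at one-leaf stage, 2 to 3 weeks after sowing, with WP or EC formulations in water plus 0.5% additive at 600 l/ha. Activity rated visually after about 3 weeks against untreated controls (100% = plants dead, 0% = like control).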

Abutilon theophrasti = assay: Post-emergence herbicidal activity against ABUTH; conditions: Abutilon theophrasti, 504 h, dosage 320 g/ha, rated about 3 weeks after treatment
Method in brief: (§1)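 Greenhouse-grown plants treated at one-leaf stage, 2 to 3 weeks after sowing, with WP or EC formulations sprayed as aqueous suspension/emulsion plus 0.5% additive at 600 l/ha. Activity rated visually about 3 weeks later versus untreated controls (100% = plants dead, 0% = like control).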

Alopecurus myosuroides = assay: Post-emergence herbicidal activity against ALOMY; conditions: Alopecurus myosuroides, 504 h, dosage 320 g/ha, rated about 3 weeks after treatment
Method in brief: as §1

Polygonum convolvulus [2] = assay: Post-emergence herbicidal activity against POLCO; conditions: Fallopia convolvulus, 504 h, dosage 320 g/ha, rated about 3 weeks after treatment
Method in brief: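 Greenhouse weeds in sandy loam were sprayed at the one-leaf stage, 2–3 weeks after sowing, with WP or EC formulations plus 0.5% additive at 600 l/ha water. About 3 weeks later, damage was rated visually against untreated controls, where 100% means plants dead and 0% means like control.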

Veronica persica [3] = assay: Post-emergence herbicidal activity against VERPE; conditions: Veronica persica, 504 h, dosage 320 g/ha
Method in brief: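 Greenhouse plants treated at one-leaf stage, 2–3 weeks after sowing, by spraying WP or EC formulations with 0.5% additive at 600 l/ha water. Visual rating about 3 weeks later versus untreated controls (100% = plants dead, 0% = like controls).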

Avena fatua [4] = assay: Pre-emergence herbicidal activity against AVEFA; conditions: Avena fatua, 504 h, dosage 80 g/ha, read-out: Pre-emergence herbicidal activity against AVEVA in % (AVEFA)
Excerpt: (§2) 1. Pre-Emergence Herbicidal Action and Crop Plant Compatibility Seeds of monocotyledonous and dicotyledonous weed plants and crop plants are placed in plastic or wood fiber pots and covered with soil. The compounds of the invention, formulated in the form of wettable powders (WP) or as emulsion concentrates (EC), are then applied onto the surface of the covering soil as aqueous suspension or emulsion with addition of 0.5% additive at a water application rate of 600 l/ha (converted). After the treatment, the pots are placed in a greenhouse and kept under good growth conditions for the trial plants. After about 3 weeks, the effect of the preparations is scored visually in comparison with untreated controls as percentages. For example, 100% activity=the plants have died, 0% activity=like control plants. AMARE: Amaranthus retroflexus AVEFA: Avena fatua

Polygonum convolvulus [5] = assay: Pre-emergence herbicidal activity against POLCO; conditions: Fallopia convolvulus, 504 h, dosage 80 g/ha
Excerpt: as §2, with “POLCO: Polygonum convolvulus SETVI: Setaria viridis” for “AMARE: Amaranthus retroflexus AVEFA: Avena fatua”

Veronica persica [6] = assay: Pre-emergence herbicidal activity against VERPE; conditions: Veronica persica, 504 h, dosage 80 g/ha
Excerpt: as §2, with “STEME: Stellaria media VERPE: Veronica persica” for “AMARE: Amaranthus retroflexus AVEFA: Avena fatua”

Compound	pest or weed control at 320 g/ha (Avena fatua [1])	pest or weed control at 320 g/ha (Abutilon theophrasti)	pest or weed control at 320 g/ha (Alopecurus myosuroides)	pest or weed control at 320 g/ha (Polygonum convolvulus [2])	pest or weed control at 320 g/ha (Veronica persica [3])	pest or weed control at 80 g/ha (Avena fatua [4])	pest or weed control at 80 g/ha (Polygonum convolvulus [5])	pest or weed control at 80 g/ha (Veronica persica [6])
COC(=O)[C@H]1C[C@H](NC(=O)[C@@]2(C)CC(c3cc(F)cc(F)c3)=NO2)CO1 (mixture of isomers) [I-55, methyl trans-4-[[(5R)-3-(3,5-difluorophenyl)-5-methyl-4H-isoxazole-5-carbonyl]amino]tetrahydrofuran-2-carboxylate]	90%	90%	90%	90%	90%			
C=C[C@]1(C(=O)N[C@@H]2CO[C@@H](C(=O)OC)C2)CC(c2cc(F)cc(F)c2)=NO1 (mixture of isomers) [I-56, methyl trans-4-[[(5S)-3-(3,5-difluorophenyl)-5-vinyl-4H-isoxazole-5-carbonyl]amino]tetrahydrofuran-2-carboxylate]	100%	90%	90%	90%	90%			
COC(=O)[C@H]1C[C@@H](NC(=O)C2(C)CC(c3cc(F)cc(F)c3)=NO2)CO1 (relative stereo) [I-01, methyl cis-4-[[3-(3,5-difluorophenyl)-5-methyl-4H-isoxazole-5-carbonyl]amino]tetrahydrofuran-2-carboxylate]	100%	80%	100%	80%	80%	90%	80%	80%
C=CC1(C(=O)N[C@H]2CO[C@@H](C(=O)OC)C2)CC(c2cc(Cl)cc(Cl)c2)=NO1 (relative stereo) [I-03, methyl cis-4-[[3-(3,5-dichlorophenyl)-5-vinyl-4H-isoxazole-5-carbonyl]amino]tetrahydrofuran-2-carboxylate]	80%		90%	80%	80%		80%	
COC(=O)[C@H]1C[C@@H](NC(=O)C2(C)CC(c3cc(C)cc(Br)c3)=NO2)CO1 (relative stereo) [I-04, methyl cis-4-[[3-(3-bromo-5-methylphenyl)-5-methyl-4H-isoxazole-5-carbonyl]amino]tetrahydrofuran-2-carboxylate]	100%		90%	80%	80%		90%	
COC(=O)[C@H]1C[C@@H](NC(=O)C2(C(F)(F)F)CC(c3cc(F)cc(F)c3)=NO2)CO1 (relative stereo) [I-06, methyl cis-4-[[3-(3,5-difluorophenyl)-5-(trifluoromethyl)-4H-isoxazole-5-carbonyl]amino]tetrahydrofuran-2-carboxylate]	90%		90%	80%	80%	90%	100%	
C=CC1(C(=O)N[C@H]2CO[C@@H](C(=O)OC)C2)CC(c2cccc(F)c2)=NO1 (relative stereo) [I-07, methyl cis-4-[[3-(3-fluorophenyl)-5-vinyl-4H-isoxazole-5-carbonyl]amino]tetrahydrofuran-2-carboxylate]	90%		90%	80%	80%		80%	
COC(=O)[C@H]1C[C@@H](NC(=O)C2(OC)CC(c3cc(C)cc(Br)c3)=NO2)CO1 (relative stereo) [I-08, methyl cis-4-[[3-(3-bromo-5-methylphenyl)-5-methoxy-4H-isoxazole-5-carbonyl]amino]tetrahydrofuran-2-carboxylate]	100%			80%	80%		80%	90%
COC(=O)[C@H]1C[C@@H](NC(=O)C2(OC)CC(c3ccccc3)=NO2)CO1 (relative stereo) [I-14, methyl cis-4-[(5-methoxy-3-phenyl-4H-isoxazole-5-carbonyl)amino]tetrahydrofuran-2-carboxylate]	100%		100%	90%	80%			
COC(=O)C1COCC1NC(=O)C1(C)CC(c2cc(F)cc(F)c2)=NO1 (centres unmarked) [I-19, methyl 4-[[3-(3,5-difluorophenyl)-5-methyl-4H-isoxazole-5-carbonyl]amino]tetrahydrofuran-3-carboxylate]	100%	80%	90%	80%	80%	80%	90%	90%
C=CC1(C(=O)NC2=C(C(=O)OCC)COC2)CC(c2cc(F)cc(F)c2)=NO1 (centres unmarked) [I-23, ethyl 4-[[3-(3,5-difluorophenyl)-5-vinyl-4H-isoxazole-5-carbonyl]amino]-2,5-dihydrofuran-3-carboxylate]	100%		100%	90%		90%		
COC(=O)C1COCC1NC(=O)C1(OC)CC(c2cc(F)cc(F)c2)=NO1 (centres unmarked) [I-27, methyl 4-[[3-(3,5-difluorophenyl)-5-methoxy-4H-isoxazole-5-carbonyl]amino]tetrahydrofuran-3-carboxylate]	90%		90%	80%	80%	90%	80%	90%
COC(=O)C1COCC1NC(=O)[C@@]1(C)CC(c2cc(F)cc(F)c2)=NO1 (stereo partly drawn) [I-28, methyl 4-[[(5R)-3-(3,5-difluorophenyl)-5-methyl-4H-isoxazole-5-carbonyl]amino]tetrahydrofuran-3-carboxylate]	100%	80%	90%	80%	90%	100%		90%
COC(=O)C1=C[C@H](NC(=O)C2(C)CC(c3cccc(F)c3)=NO2)CO1 (stereo partly drawn) [I-39, methyl (3S)-3-[[3-(3-fluorophenyl)-5-methyl-4H-isoxazole-5-carbonyl]amino]-2,3-dihydrofuran-5-carboxylate]	100%	80%	100%	80%	80%		80%	
COC(=O)[C@@]1(OC)C[C@@H](NC(=O)C2(C)CC(c3cccc(F)c3)=NO2)CO1 (stereo partly drawn) [I-47, methyl (2R,4R)-4-[[3-(3-fluorophenyl)-5-methyl-4H-isoxazole-5-carbonyl]amino]-2-methoxytetrahydrofuran-2-carboxylate]	100%	80%	100%	80%	80%		90%	
